Patent US9340590B2 (priority 2011, dated 2016)
Positions of bridges follow the written chain, without caps; N, C: chain ends. Residues, ends and D or L forms follow the SMILES beside them.

Key:
Assay in all cases: cell-based
[1] = target: hNav1.7 (Homo sapiens, UniProt Q15858); assay type: cell-based; conditions: Table 26; IonWorks Quattro, use; […]; read-out: IWQ Use Nav1.7
[2] = target: hNav1.3 (Homo sapiens, UniProt Q9NY46); conditions: Table 26; IonWorks Quattro, use; […]; read-out: IWQ Use Nav1.3
[3] = target: hNav1.5 (Homo sapiens, UniProt Q14524); conditions: Table 26; IonWorks Quattro, use; […]; read-out: IWQ Use Nav1.5

hNav1.7, sequence (Q15858 whole entry, looked up): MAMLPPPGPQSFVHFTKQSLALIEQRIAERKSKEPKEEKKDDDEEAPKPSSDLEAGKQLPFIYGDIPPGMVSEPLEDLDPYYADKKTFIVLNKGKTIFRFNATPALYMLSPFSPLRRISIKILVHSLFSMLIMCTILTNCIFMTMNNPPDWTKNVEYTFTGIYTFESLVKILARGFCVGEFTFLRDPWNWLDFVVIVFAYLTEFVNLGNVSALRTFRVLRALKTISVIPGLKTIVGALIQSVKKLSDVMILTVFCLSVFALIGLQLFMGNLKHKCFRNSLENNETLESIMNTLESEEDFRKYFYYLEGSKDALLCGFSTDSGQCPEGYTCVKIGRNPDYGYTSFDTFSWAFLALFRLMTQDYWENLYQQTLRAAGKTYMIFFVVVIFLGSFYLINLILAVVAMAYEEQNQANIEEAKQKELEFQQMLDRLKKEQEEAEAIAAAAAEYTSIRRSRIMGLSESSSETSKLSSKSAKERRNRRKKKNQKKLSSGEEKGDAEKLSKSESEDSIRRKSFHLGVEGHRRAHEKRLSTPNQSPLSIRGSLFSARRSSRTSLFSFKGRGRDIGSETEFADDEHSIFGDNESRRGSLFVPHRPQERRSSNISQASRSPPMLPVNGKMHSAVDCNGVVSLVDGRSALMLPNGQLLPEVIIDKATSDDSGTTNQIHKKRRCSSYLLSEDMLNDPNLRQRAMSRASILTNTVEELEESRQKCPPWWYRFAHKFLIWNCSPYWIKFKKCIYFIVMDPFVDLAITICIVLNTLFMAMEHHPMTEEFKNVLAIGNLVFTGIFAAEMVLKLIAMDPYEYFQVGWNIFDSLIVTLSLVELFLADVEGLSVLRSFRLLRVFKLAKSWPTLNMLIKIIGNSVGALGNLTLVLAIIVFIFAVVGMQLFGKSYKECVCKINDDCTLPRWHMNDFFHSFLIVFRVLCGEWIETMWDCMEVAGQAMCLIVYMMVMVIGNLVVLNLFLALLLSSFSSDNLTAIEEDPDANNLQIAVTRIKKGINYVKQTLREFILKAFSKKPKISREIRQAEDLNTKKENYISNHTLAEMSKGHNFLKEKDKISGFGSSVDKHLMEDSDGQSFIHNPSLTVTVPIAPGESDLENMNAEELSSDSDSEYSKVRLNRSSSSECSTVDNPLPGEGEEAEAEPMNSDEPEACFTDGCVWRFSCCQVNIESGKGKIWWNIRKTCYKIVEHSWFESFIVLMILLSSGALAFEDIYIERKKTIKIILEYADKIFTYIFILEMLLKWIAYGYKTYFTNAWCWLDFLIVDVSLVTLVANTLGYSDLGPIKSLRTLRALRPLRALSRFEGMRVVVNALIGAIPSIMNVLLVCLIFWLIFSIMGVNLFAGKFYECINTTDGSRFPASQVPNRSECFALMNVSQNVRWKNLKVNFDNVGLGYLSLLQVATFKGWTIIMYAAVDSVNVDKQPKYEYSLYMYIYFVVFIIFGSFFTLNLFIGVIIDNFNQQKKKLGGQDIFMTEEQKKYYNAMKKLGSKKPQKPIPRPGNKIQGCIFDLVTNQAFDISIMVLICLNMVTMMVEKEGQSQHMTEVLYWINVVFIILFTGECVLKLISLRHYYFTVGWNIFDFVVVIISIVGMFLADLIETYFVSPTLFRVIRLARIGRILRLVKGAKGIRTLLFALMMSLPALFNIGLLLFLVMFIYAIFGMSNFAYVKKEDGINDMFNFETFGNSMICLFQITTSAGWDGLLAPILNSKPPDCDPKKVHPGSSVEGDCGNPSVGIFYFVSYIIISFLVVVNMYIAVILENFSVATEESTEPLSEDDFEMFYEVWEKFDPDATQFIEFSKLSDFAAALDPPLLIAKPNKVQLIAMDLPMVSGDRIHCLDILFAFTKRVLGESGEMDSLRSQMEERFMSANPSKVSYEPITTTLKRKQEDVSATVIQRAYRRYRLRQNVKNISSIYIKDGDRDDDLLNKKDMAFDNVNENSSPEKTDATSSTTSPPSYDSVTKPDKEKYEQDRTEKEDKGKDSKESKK
hNav1.3, sequence (Q9NY46 whole entry, looked up): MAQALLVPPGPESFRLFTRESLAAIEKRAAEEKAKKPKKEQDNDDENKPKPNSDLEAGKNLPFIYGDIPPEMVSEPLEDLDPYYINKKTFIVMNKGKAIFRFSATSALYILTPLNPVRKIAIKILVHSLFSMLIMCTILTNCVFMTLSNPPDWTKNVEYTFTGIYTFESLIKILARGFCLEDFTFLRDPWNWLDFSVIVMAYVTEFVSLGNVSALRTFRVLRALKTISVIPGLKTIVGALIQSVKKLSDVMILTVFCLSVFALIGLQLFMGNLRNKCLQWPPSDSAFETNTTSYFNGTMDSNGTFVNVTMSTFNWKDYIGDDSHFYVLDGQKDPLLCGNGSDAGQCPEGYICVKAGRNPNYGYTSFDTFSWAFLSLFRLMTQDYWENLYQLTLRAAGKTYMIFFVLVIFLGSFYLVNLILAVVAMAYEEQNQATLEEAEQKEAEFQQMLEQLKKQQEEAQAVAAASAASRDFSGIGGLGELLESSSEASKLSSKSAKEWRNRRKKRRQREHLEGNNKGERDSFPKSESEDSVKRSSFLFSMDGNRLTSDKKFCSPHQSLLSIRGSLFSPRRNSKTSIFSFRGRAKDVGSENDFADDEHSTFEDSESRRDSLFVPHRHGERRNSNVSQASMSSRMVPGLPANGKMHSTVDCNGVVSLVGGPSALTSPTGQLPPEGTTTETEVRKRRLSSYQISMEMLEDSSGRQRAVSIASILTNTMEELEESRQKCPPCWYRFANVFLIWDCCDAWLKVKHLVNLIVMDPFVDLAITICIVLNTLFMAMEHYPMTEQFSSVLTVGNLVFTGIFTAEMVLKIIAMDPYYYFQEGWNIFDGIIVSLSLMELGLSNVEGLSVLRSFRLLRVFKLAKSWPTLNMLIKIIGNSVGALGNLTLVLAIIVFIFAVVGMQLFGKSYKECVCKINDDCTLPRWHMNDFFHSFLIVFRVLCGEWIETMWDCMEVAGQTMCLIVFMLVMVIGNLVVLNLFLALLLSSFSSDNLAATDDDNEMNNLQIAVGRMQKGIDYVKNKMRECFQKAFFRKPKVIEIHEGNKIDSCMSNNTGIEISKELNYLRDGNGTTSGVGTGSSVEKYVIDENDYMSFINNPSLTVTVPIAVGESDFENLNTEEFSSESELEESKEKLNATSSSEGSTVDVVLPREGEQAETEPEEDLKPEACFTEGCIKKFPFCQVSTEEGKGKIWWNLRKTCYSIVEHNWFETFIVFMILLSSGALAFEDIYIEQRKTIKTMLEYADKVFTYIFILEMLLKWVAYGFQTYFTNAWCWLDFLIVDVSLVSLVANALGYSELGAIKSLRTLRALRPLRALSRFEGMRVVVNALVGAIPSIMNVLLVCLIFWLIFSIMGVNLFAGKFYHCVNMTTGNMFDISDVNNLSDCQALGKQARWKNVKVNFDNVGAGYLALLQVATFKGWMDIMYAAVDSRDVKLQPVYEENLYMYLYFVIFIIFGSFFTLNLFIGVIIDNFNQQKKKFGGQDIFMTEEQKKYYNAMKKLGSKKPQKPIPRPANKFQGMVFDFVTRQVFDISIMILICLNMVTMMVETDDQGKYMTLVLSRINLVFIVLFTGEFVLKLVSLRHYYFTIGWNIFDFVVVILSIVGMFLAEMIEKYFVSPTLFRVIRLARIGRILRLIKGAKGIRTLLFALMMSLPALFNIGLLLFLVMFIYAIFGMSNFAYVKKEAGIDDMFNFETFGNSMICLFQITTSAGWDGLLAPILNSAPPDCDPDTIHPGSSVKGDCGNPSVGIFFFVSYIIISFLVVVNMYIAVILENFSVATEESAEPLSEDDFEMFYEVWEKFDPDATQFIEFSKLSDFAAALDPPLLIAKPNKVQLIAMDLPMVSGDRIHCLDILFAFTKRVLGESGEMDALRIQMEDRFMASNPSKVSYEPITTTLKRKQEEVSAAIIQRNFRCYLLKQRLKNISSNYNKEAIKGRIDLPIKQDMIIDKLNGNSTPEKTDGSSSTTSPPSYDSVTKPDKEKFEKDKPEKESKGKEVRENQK

SMILES | IC50 [1] | IC50 [2] | IC50 [3]
CC[C@H](C)[C@@H]1NC(=O)[C@@H]2CSSC[C@@H]3NC(=O)[C@H](C(C)C)NC(=O)[C@H](CC(C)C)NC(=O)[C@H](CC(N)=O)NC(=O)[C@@H]4CCCN4C(=O)[C@H](CCCNC(=N)N)NC(=O)[C@H](CSSC[C@H](NC(=O)[C@@H](N)CC(=O)O)C(=O)N[C@@H](CC(C)C)C(=O)NCC(=O)N[C@@H](Cc4ccccc4)C(=O)N[C@@H](CCSC)C(=O)N[C@@H](CCCNC(=N)N)C(=O)N[C@@H](CCCCN)C(=O)N2)NC(=O)[C@H](CSSC[C@@H](C(=O)N[C@@H](CCCCN)C(=O)N[C@@H](Cc2ccc(O)cc2)C(=O)N[C@@H](CC(N)=O)C(=O)N[C@@H](Cc2ccccc2)C(N)=O)NC(=O)[C@H](Cc2c[nH]c4ccccc24)NC(=O)[C@H](CCCCN)NC(=O)[C@H](Cc2c[nH]cn2)NC(=O)[C@H]([C@@H](C)O)NC(=O)[C@H](CCCNC(=N)N)NC(=O)[C@H](CO)NC3=O)NC(=O)[C@H](CCCCN)NC(=O)[C@H](CC(=O)O)NC(=O)[C@H](CC(N)=O)NC(=O)[C@H](CC(=O)O)NC(=O)[C@@H]2CCCN2C1=O [compound 394] (H-DCLGFMRKCIPDNDKCCRPNLVCSRTHKWCKYNF-NH2; disulfide 2-17, 9-23, 16-30) | 360 nM | 70 nM | 7940 nM
CC[C@H](C)[C@@H]1NC(=O)[C@@H]2CSSC[C@@H]3NC(=O)[C@H](C(C)C)NC(=O)[C@H](CC(C)C)NC(=O)[C@H](CC(N)=O)NC(=O)[C@@H]4CCCN4C(=O)[C@H](CCCNC(=N)N)NC(=O)[C@H](CSSC[C@H](NC(=O)[C@@H](N)CC(=O)O)C(=O)N[C@@H](CC(C)C)C(=O)NCC(=O)N[C@@H](Cc4ccccc4)C(=O)N[C@@H](CCSC)C(=O)N[C@@H](CCCNC(=N)N)C(=O)N[C@@H](CCCCN)C(=O)N2)NC(=O)[C@H](CSSC[C@@H](C(=O)N[C@@H](CCCCN)C(=O)N[C@@H](Cc2ccc(O)cc2)C(=O)N[C@@H](CC(=O)O)C(=O)N[C@@H](Cc2ccccc2)C(N)=O)NC(=O)[C@H](Cc2c[nH]c4ccccc24)NC(=O)[C@H](CCCCN)NC(=O)[C@H](Cc2c[nH]cn2)NC(=O)[C@H]([C@@H](C)O)NC(=O)[C@H](CCCNC(=N)N)NC(=O)[C@H](CO)NC3=O)NC(=O)[C@H](CCCCN)NC(=O)[C@H](CC(=O)O)NC(=O)[C@H](CC(N)=O)NC(=O)[C@H](CC(=O)O)NC(=O)[C@@H]2CCCN2C1=O [compound 395] (H-DCLGFMRKCIPDNDKCCRPNLVCSRTHKWCKYDF-NH2; disulfide 2-17, 9-23, 16-30) | 770 nM | 170 nM | 8790 nM
CC[C@H](C)[C@@H]1NC(=O)[C@@H]2CSSC[C@@H]3NC(=O)[C@H](C(C)C)NC(=O)[C@H](CC(C)C)NC(=O)[C@H](CC(N)=O)NC(=O)[C@@H]4CCCN4C(=O)[C@H](CCCNC(=N)N)NC(=O)[C@H](CSSC[C@H](NC(=O)[C@@H](N)CC(=O)O)C(=O)N[C@@H](CC(C)C)C(=O)NCC(=O)N[C@@H](Cc4ccccc4)C(=O)N[C@@H](CCSC)C(=O)N[C@@H](CCCNC(=N)N)C(=O)N[C@@H](CCCCN)C(=O)N2)NC(=O)[C@H](CSSC[C@@H](C(=O)N[C@@H](CCCCN)C(=O)N[C@@H](Cc2ccc(O)cc2)C(=O)N[C@H](C(=O)N[C@@H](Cc2ccccc2)C(N)=O)[C@@H](C)O)NC(=O)[C@H](Cc2c[nH]c4ccccc24)NC(=O)[C@H](CCCCN)NC(=O)[C@H](Cc2c[nH]cn2)NC(=O)[C@H]([C@@H](C)O)NC(=O)[C@H](CCCNC(=N)N)NC(=O)[C@H](CO)NC3=O)NC(=O)[C@H](CCCCN)NC(=O)[C@H](CC(=O)O)NC(=O)[C@H](CC(N)=O)NC(=O)[C@H](CC(=O)O)NC(=O)[C@@H]2CCCN2C1=O [compound 396] (H-DCLGFMRKCIPDNDKCCRPNLVCSRTHKWCKYTF-NH2; disulfide 2-17, 9-23, 16-30) | 20 nM | 40 nM | 3780 nM
